Laboratory results reported in ChEMBL document CHEMBL5058647, “Data for DCP probe JNJ-9350” (2022).

What was measured:
[1] = biological target: D(2) dopamine receptor (Homo sapiens) (UniProt P14416); settings: Compound concentration 10.0 uM
[2] = biological target: T1, Muscarinic acetylcholine receptor M4 (Homo sapiens) (UniProt P08173); settings: Compound concentration 10.0 uM
T1 sequence (whole entry): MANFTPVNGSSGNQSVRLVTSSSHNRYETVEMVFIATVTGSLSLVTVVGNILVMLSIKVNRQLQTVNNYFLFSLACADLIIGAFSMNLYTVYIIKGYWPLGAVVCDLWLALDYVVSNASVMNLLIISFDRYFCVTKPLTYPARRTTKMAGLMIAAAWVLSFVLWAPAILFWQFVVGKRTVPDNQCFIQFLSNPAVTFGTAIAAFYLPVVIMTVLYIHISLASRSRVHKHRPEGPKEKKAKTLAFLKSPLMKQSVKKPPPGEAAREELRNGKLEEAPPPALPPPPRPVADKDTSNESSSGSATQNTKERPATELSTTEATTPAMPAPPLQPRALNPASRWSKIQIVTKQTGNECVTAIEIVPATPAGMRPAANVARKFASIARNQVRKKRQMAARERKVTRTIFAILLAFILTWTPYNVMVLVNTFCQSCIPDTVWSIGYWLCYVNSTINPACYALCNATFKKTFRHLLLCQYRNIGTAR

[3] = biological target: Muscarinic acetylcholine receptor M5 (Homo sapiens) (UniProt P08912); settings: Compound concentration 10.0 uM
Sequence of Muscarinic acetylcholine receptor M5 (Homo sapiens) (P08912 whole entry): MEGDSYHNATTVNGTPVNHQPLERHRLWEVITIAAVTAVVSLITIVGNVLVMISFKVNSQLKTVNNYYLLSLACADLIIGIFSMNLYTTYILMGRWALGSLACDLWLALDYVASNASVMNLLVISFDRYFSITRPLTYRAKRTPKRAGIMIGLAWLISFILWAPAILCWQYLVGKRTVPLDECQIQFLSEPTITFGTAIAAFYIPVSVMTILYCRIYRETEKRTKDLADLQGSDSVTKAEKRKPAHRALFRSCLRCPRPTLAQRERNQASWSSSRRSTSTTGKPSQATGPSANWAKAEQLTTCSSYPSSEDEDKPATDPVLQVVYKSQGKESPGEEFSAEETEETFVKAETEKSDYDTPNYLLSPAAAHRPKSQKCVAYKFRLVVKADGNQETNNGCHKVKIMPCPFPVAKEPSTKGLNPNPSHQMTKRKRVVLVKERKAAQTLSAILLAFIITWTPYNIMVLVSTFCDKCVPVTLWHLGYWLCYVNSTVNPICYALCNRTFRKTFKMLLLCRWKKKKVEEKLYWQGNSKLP

[4] = biological target: 5-hydroxytryptamine receptor 7 (Homo sapiens) (UniProt P34969); settings: Compound concentration 10.0 uM
Sequence of 5-hydroxytryptamine receptor 7 (Homo sapiens) (P34969 whole entry): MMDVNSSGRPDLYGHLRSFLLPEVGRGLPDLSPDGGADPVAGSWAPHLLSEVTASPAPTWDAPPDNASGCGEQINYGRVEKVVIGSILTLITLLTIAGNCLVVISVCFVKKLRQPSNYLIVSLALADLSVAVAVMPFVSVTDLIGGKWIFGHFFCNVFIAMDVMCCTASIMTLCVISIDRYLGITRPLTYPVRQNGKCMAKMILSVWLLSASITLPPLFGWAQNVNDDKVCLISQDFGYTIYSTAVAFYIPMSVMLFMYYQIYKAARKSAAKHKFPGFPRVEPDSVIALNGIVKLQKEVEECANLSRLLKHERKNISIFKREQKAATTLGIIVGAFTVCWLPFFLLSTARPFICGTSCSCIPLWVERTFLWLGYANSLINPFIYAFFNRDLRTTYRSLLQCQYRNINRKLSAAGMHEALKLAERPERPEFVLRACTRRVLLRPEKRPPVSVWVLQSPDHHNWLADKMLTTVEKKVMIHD

[5] = biological target: 5-hydroxytryptamine receptor 1D (Homo sapiens, UniProt P28221); settings: Compound concentration 10.0 uM
[6] = biological target: T2, Sodium-dependent dopamine transporter (Homo sapiens, UniProt Q01959); assay: GPCRScan assay: inhibition of DAT; design: radioligand conc. used [nm] 3.6 – 16.0, parental cells stable HEK
T2 sequence (Q01959 whole entry): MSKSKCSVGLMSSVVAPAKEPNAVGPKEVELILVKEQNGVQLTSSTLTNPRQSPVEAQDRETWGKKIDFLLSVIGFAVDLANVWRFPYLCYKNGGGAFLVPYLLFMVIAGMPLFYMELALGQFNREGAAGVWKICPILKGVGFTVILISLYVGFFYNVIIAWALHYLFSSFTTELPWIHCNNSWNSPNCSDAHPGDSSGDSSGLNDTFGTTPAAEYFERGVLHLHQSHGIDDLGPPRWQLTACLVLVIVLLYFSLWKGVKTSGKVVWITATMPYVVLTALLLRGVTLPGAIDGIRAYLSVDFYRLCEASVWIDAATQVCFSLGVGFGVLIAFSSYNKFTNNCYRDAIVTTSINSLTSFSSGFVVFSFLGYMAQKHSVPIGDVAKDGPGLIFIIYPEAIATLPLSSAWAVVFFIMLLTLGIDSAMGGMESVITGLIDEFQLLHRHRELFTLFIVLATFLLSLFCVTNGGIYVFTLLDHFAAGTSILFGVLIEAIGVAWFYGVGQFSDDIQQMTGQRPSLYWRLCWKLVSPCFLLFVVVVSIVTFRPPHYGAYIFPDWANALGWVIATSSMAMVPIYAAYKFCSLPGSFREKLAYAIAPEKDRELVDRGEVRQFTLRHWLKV

[7] = biological target: T3, D(3) dopamine receptor (Homo sapiens, UniProt P35462); assay: GPCRScan assay: inhibition of D3; design: radioligand conc. used [nm] 0.5 – 1.8, parental cells HEKT
T3 sequence (P35462 whole entry): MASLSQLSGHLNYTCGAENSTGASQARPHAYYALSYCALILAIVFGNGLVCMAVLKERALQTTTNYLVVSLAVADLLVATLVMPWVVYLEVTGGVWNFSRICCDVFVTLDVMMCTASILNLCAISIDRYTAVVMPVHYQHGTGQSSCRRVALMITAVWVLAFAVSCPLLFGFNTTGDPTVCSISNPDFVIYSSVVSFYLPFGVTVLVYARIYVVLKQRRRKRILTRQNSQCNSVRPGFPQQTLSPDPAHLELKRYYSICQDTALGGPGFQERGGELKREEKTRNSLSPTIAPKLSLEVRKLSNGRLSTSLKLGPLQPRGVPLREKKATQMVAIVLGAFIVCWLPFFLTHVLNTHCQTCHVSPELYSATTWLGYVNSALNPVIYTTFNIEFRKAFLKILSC

[8] = biological target: 5-hydroxytryptamine receptor 3A (Homo sapiens) (UniProt P46098); settings: Compound concentration 10.0 uM
[9] = biological target: Beta-3 adrenergic receptor (Homo sapiens) (UniProt P13945); settings: Compound concentration 10.0 uM
[10] = biological target: Sodium-dependent serotonin transporter (Homo sapiens) (UniProt P31645); settings: Compound concentration 10.0 uM
[11] = biological target: Muscarinic acetylcholine receptor M1 (Homo sapiens) (UniProt P11229); settings: Compound concentration 10.0 uM
Sequence of Muscarinic acetylcholine receptor M1 (Homo sapiens) (P11229 whole entry): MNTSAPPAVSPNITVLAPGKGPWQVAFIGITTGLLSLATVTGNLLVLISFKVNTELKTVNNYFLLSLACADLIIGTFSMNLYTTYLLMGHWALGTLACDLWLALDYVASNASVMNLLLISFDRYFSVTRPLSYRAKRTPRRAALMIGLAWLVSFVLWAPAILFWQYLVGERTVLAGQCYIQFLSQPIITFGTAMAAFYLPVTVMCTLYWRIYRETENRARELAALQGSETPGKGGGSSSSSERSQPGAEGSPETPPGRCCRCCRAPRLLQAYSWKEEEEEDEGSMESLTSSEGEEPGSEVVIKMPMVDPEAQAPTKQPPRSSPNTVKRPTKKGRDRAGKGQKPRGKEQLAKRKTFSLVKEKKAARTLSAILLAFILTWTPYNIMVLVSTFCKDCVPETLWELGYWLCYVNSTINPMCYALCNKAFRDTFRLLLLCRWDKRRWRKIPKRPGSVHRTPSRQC

[12] = biological target: T4, Kappa-type opioid receptor (Homo sapiens, UniProt P41145); assay: GPCRScan assay: inhibition of KOR; design: radioligand conc. used [nm] 0.6 – 1.2, parental cells stable HEK
T4 sequence (P41145 whole entry): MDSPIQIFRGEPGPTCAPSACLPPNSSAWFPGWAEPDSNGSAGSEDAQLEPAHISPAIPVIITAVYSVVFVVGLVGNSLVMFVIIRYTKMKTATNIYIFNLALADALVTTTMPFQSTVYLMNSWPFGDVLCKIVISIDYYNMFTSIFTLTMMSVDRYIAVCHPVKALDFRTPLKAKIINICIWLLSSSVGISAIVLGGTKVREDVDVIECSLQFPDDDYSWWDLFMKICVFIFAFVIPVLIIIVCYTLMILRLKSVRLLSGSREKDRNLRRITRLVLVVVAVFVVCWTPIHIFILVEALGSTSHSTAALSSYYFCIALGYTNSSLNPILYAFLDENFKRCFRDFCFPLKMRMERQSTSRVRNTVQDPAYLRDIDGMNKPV

[13] = biological target: Beta-1 adrenergic receptor (Homo sapiens) (UniProt P08588); settings: Compound concentration 10.0 uM
[14] = biological target: T2, Sodium-dependent dopamine transporter; settings: Compound concentration 10.0 uM
[15] = biological target: Sigma non-opioid intracellular receptor 1 (Homo sapiens) (UniProt Q99720); settings: Compound concentration 10.0 uM
Sequence of Sigma non-opioid intracellular receptor 1 (Homo sapiens) (Q99720 whole entry): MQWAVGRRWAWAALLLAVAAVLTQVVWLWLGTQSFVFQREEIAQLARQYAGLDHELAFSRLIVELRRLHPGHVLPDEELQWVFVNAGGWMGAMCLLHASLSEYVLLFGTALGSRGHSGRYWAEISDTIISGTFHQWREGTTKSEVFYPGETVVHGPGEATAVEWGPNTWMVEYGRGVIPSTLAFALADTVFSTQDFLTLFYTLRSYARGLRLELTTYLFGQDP

[16] = biological target: 5-hydroxytryptamine receptor 1B (Homo sapiens, UniProt P28222); settings: Compound concentration 10.0 uM
[17] = species on record: Rattus norvegicus; settings: Compound concentration 10.0 uM
[18] = biological target: 5-hydroxytryptamine receptor 5A (Homo sapiens) (UniProt P47898); settings: Compound concentration 10.0 uM
[19] = biological target: Alpha-1A adrenergic receptor (Homo sapiens) (UniProt P35348); settings: Compound concentration 10.0 uM
[20] = biological target: 5-hydroxytryptamine receptor 1A (Homo sapiens) (UniProt P08908); settings: Compound concentration 10.0 uM
[21] = biological target: Alpha-2B adrenergic receptor (Homo sapiens) (UniProt P18089); settings: Compound concentration 10.0 uM
[22] = biological target: Peroxisomal N(1)-acetyl-spermine/spermidine oxidase (Homo sapiens, UniProt Q6QHF9); assay: HyPerBlu POAX enzymatic assay
[23] = biological target: 5-hydroxytryptamine receptor 6 (Homo sapiens) (UniProt P50406); settings: Compound concentration 10.0 uM
[24] = biological target: 5-hydroxytryptamine receptor 2B (Homo sapiens, UniProt P41595); settings: Compound concentration 10.0 uM
[25] = biological target: Delta-type opioid receptor (Homo sapiens) (UniProt P41143); settings: Compound concentration 10.0 uM
[26] = biological target: 5-hydroxytryptamine receptor 2A (Homo sapiens) (UniProt P28223); settings: Compound concentration 10.0 uM
[27] = biological target: T4, Kappa-type opioid receptor; settings: Compound concentration 10.0 uM
[28] = biological target: Sodium-dependent noradrenaline transporter (Homo sapiens) (UniProt P23975); settings: Compound concentration 10.0 uM
Sequence of Sodium-dependent noradrenaline transporter (Homo sapiens) (P23975 whole entry): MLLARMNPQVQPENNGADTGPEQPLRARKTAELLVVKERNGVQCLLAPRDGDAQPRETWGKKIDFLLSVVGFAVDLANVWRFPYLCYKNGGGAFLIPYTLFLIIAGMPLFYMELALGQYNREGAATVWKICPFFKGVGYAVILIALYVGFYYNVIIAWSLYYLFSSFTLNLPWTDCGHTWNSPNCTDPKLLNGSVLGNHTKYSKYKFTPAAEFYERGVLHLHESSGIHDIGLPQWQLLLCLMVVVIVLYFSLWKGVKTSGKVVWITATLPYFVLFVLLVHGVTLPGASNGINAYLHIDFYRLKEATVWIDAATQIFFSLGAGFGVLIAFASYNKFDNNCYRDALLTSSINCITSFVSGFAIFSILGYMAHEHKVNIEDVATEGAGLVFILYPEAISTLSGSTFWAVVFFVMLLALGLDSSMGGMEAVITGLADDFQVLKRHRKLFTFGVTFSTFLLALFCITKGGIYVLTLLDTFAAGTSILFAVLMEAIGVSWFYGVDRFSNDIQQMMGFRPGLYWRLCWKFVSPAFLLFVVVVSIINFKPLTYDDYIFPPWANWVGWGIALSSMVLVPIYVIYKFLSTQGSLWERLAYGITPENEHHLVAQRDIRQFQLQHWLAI

[29] = GPCRScan assay: inhibition of GABA/PBR; design: species or system Rattus norvegicus; radioligand conc. used [nm] 0.3 – 2.0, parental cells brain tissue
[30] = biological target: Beta-2 adrenergic receptor (Homo sapiens) (UniProt P07550); settings: Compound concentration 10.0 uM
Sequence of Beta-2 adrenergic receptor (Homo sapiens) (P07550 whole entry, looked up): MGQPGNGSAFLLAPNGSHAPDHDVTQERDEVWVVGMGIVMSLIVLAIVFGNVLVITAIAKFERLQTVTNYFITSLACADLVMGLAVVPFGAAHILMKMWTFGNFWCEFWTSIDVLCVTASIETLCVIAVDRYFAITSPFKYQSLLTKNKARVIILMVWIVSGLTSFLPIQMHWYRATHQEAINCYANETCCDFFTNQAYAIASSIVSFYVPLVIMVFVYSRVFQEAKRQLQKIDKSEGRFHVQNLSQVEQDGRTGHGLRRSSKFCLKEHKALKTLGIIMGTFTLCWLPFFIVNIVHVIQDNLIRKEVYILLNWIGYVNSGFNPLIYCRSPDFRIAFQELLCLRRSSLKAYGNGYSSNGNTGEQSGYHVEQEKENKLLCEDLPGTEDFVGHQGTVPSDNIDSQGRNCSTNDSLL

[31] = biological target: Histamine H2 receptor (Homo sapiens) (UniProt P25021); settings: Compound concentration 10.0 uM
Sequence of Histamine H2 receptor (Homo sapiens) (P25021 whole entry): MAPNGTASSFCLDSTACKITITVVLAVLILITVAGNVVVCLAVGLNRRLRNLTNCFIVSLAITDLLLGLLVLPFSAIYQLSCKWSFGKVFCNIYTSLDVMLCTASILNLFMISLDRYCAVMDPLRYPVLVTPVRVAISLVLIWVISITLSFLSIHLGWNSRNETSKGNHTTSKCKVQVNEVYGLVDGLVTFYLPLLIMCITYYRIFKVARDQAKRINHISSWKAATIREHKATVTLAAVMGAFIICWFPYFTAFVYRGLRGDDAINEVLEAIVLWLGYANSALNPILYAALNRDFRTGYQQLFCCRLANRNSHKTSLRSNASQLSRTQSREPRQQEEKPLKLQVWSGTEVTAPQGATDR

[32] = biological target: Histamine H1 receptor (Homo sapiens) (UniProt P35367); settings: Compound concentration 10.0 uM
Sequence of Histamine H1 receptor (Homo sapiens) (P35367 whole entry): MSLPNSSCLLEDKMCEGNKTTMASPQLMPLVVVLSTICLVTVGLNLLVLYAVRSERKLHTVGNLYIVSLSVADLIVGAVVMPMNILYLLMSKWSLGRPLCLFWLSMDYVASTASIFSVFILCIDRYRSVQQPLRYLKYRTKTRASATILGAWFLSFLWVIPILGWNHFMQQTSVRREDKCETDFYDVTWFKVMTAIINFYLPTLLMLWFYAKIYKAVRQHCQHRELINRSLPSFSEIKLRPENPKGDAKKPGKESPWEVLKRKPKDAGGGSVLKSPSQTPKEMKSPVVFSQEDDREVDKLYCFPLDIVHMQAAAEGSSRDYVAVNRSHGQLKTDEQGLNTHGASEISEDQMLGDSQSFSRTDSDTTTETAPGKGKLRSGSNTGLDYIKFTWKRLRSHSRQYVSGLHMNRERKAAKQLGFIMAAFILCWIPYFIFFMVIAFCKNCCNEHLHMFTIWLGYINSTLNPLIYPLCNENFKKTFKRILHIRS

[33] = biological target: 5-hydroxytryptamine receptor 1E (Homo sapiens) (UniProt P28566); settings: Compound concentration 10.0 uM
[34] = biological target: GABA-A receptor; anion channel (Rattus norvegicus) (UniProt O09028+P15431+P18506+P18508+P19969+P20236+P23574+P23576+P28471+P28473+P30191+P62813+P63079+P63138+Q91ZM7+Q9ES14); settings: Compound concentration 10.0 uM
[35] = biological target: Muscarinic acetylcholine receptor M3 (Homo sapiens) (UniProt P20309); settings: Compound concentration 10.0 uM
[36] = biological target: 5-hydroxytryptamine receptor 2C (Homo sapiens) (UniProt P28335); settings: Compound concentration 10.0 uM
[37] = biological target: Histamine H3 receptor (Homo sapiens) (UniProt Q9Y5N1); settings: Compound concentration 10.0 uM
[38] = biological target: Alpha-1D adrenergic receptor (Homo sapiens) (UniProt P25100); settings: Compound concentration 10.0 uM
[39] = biological target: Histamine H4 receptor (Homo sapiens) (UniProt Q9H3N8); settings: Compound concentration 10.0 uM
[40] = biological target: Spermine oxidase (Homo sapiens, UniProt Q9NWM0); assay: HyPerBlu SMOX enzymatic assay
[41] = biological target: Mu-type opioid receptor (Homo sapiens) (UniProt P35372); settings: Compound concentration 10.0 uM
[42] = biological target: D(4) dopamine receptor (Homo sapiens, UniProt P21917); assay: GPCRScan assay: inhibition of D4; design: radioligand conc. used [nm] 0.6 – 1.7, parental cells Stable HEK
[43] = biological target: D(1B) dopamine receptor (Homo sapiens) (UniProt P21918); settings: Compound concentration 10.0 uM
[44] = biological target: Muscarinic acetylcholine receptor M2 (Homo sapiens) (UniProt P08172); settings: Compound concentration 10.0 uM
[45] = biological target: Sigma intracellular receptor 2 (Homo sapiens, UniProt Q5BJF2); settings: Compound concentration 10.0 uM
[46] = biological target: Alpha-2A adrenergic receptor (Homo sapiens) (UniProt P08913); settings: Compound concentration 10.0 uM
[47] = biological target: D(1A) dopamine receptor (Homo sapiens) (UniProt P21728); settings: Compound concentration 10.0 uM
[48] = biological target: Alpha-1B adrenergic receptor (Homo sapiens, UniProt P35368); assay: GPCRScan assay: inhibition of Alpha1B; design: radioligand conc. used [nm] 0.3 – 1.0, parental cells stable HEK
[49] = biological target: T3, D(3) dopamine receptor; settings: Compound concentration 10.0 uM
[50] = biological target: D(4) dopamine receptor (Homo sapiens) (UniProt P21917); settings: Compound concentration 10.0 uM
[51] = biological target: Alpha-2C adrenergic receptor (Homo sapiens) (UniProt P18825); settings: Compound concentration 10.0 uM
[52] = biological target: Muscarinic acetylcholine receptor M4 (Homo sapiens, UniProt P08173); assay: GPCRScan assay: inhibition of M4; design: radioligand conc. used [nm] 0.3 – 1.0, parental cells stable CHO
[53] = biological target: Alpha-1B adrenergic receptor (Homo sapiens) (UniProt P35368); settings: Compound concentration 10.0 uM

- inhibition [1]: 32.2%
- inhibition [2]: 51.6%
- inhibition [3]: 30.3%
- inhibition [4]: 0.12%
- inhibition [5]: 48.5%
- Ki ([6]; read-out: Ki): 6.55 µM
- Ki ([6]; read-out: pKi (converted)): 6.61 µM
- Ki [7]: 3.6 µM
- inhibition [8]: 16.2%
- inhibition [9]: -5.81%
- inhibition [10]: 12.9%
- inhibition [11]: 18.5%
- Ki [12]: 0.198 µM
- inhibition [13]: 4.27%
- inhibition [14]: 79.9%
- inhibition [15]: 21.2%
- inhibition [16]: 38.4%
- inhibition [17]: 96.6%
- inhibition [18]: 6.76%
- inhibition [19]: -7.41%
- inhibition [20]: 16.5%
- inhibition [21]: 10.8%
- IC50 [22]: 2.1 µM (not active)
- inhibition [23]: -8.97%
- inhibition [24]: 17.5%
- inhibition [25]: 49.3%
- inhibition [26]: 17.8%
- inhibition [27]: 90.7%
- inhibition [28]: 49.4%
- Ki [29]: 0.306 µM
- pKi [29]: 6.51
- inhibition [30]: -7.96%
- inhibition [31]: 10.8%
- inhibition [32]: 14.9%
- inhibition [33]: 15.1%
- inhibition [34]: 25.9%
- inhibition [35]: 33.5%
- inhibition [36]: 7.86%
- inhibition [37]: 6.04%
- inhibition [38]: 39.3%
- inhibition [39]: 27.9%
- IC50 [40]: > 31 µM (not active)
- inhibition [41]: 25.4%
- Ki [42]: 3.39 µM
- inhibition [43]: 15%
- inhibition [44]: 46.1%
- inhibition [45]: 25.4%
- inhibition [46]: 28.1%
- inhibition [47]: 22.7%
- Ki [48]: 9.78 µM
- inhibition [49]: 90%
- inhibition [50]: 89.3%
- inhibition [51]: -1.48%
- Ki [52]: 1.31 µM
- inhibition [53]: 75.3%
SMILES: CC(=O)Nc1ccc(-c2cc(-c3ccccc3)nc3cc(C(=O)NCCCn4ccnc4)nn23)cc1
